We go through one compound from ChEMBL document CHEMBL1240378, “Pharmacokinetic-pharmacodynamic modeling of alpha interferon response induced by a Toll-like 7 receptor agonist in mice” (Antimicrob Agents Chemother, 2010).

In data set [1] the test system is Mus musculus. The experiment in a line: Induction of IFNalpha production in CD1 mouse assessed as maximum rate of interferon alpha synthesis at 0.1 to 10 mg/kg, po. Type of data set: functional. The settings on record: dose mg/kg 0.1-10.
A short description of data set [2]: Oral bioavailability in rat at 3 mg/kg. It is filed as ADME, organism-based. The conditions noted are these: in vivo.
In data set [3] the test system is Mus musculus. Nature of the data set: Absorption rate constant for depot compartment in CD1 mouse at 0.1 to 10 mg/kg, po. Type of data set: ADME, organism-based. Also noted: dose 0.1-10 mg/kg, route oral. The conditions noted are these: in vivo.
The next data set relates to Hepatitis C virus. The experiment in a line: Antiviral activity against HCV infected in human Huh7 cells with persistent PFK1389-Luc-Ubi-Neo-NS3-3'/ET replicon after 48 hrs by luminescence based assay. The conditions noted are these: Huh-7, 48 h. It is filed as functional, organism-based, Hepacivirus hominis.
A short description of data set [4]: Clearance in CD1 mouse at 0.1 to 10 mg/kg, po. It is filed as ADME, organism-based. Also noted: dose 0.1-10 mg/kg, route oral. The conditions noted are these: in vivo.
For data set [5], the system named is Mus musculus. The experiment in a line: Induction of IFNalpha production in CD1 mouse assessed as concentration of compound required for half-maximal synthesis of INF-alpha at 0.1 to 10 mg/kg, po. The conditions noted are these: dose mg/kg 0.1-10. It is filed as functional.
Data set [6] has as its system Mus musculus. The experiment in a line: Apparent volume of distribution in CD1 mouse at 0.1 to 10 mg/kg, po. Type of data set: ADME, organism-based. Also noted: dose 0.1-10 mg/kg, route oral. The conditions noted are these: in vivo.
The test system of data set [7] is Mus musculus. The experiment in a line: Induction of IFNalpha production in CD1 mouse assessed as elimination rate constant for interferon alpha at 0.1 to 10 mg/kg, po. Type of data set: functional. The settings on record: dose mg/kg 0.1-10.
Data set [8] relates to Mus musculus. The experiment in a line: Volume of distribution in central compartment in CD1 mouse at 0.1 to 10 mg/kg, po. It is filed as ADME, organism-based. Also noted: dose 0.1-10 mg/kg, route oral. The settings on record: in vivo.
Data set [9] concerns Mus musculus. The experiment in a line: Intercompartmental clearance in CD1 mouse at 0.1 to 10 mg/kg, po. Type of data set: ADME, organism-based. Also noted: dose 0.1-10 mg/kg, route oral. The settings on record: in vivo.

Take `COCCOc1nc(N)c2[nH]c(=O)n(Cc3ccccc3)c2n1`: the Smax with Mus musculus [1] is reported as 294 IU/ml/hr. The bioavailability (commonly the share of a dose that reaches the circulation, judged against a reference dose that is usually intravenous) in [2] turned out to be 40%. For the same compound, the Ka in the data set with Mus musculus [3] amounted to 35 h⁻¹. Further, the EC50 (commonly the concentration needed to bring the measured effect to its halfway point) in the data set on Hepatitis C virus is 0.03 µM. In addition, the CL/F (as a rule, clearance divided by bioavailability, as obtained after extravascular dosing) in [4] is 3.45 L/h/kg. Besides, the SC50 in the data set with Mus musculus [5] was found to be 135 ng/mL. Besides, in the data set on Mus musculus [6], the Vz stood at 40 L/kg. Besides, the Activity with Mus musculus [7] is 0.958 h⁻¹. This compound also came in with a Vd in the data set with Mus musculus [8] of 4.31 L/kg. In the data set on Mus musculus [9], the CL turned out to be 2.78 L/h/kg.
